Assay results as given in ChEMBL document CHEMBL1777736, “New indole amide derivatives as potent CRTH2 receptor antagonists” (Bioorg Med Chem Lett, 2011).

Key:
in vivo [1] = conditions: Sprague-Dawley, rat, iv, 1 mg/kg
in vivo [2] = conditions: Sprague-Dawley, rat
in vivo [3] = conditions: Sprague-Dawley, rat, po, 5 mg/kg
in vivo [4] = conditions: Sprague-Dawley, rat, iv, 1 mg/kg; remark: listed apart in the source

## C[C@@H](C(=O)N(C)[C@@H]1CCc2c(CC(=O)O)c3ccccc3n2C1)c1ccc(F)cc1
In vivo [1]
  clearance: 1.1 mL/min/kg
In vivo [2]
  half-life: 4.7 h
In vivo [3]
  bioavailability: 73%
In vivo [4]
  Vd: 0.36 L/kg

## CN([C@@H]1CCc2c(CC(=O)O)c3ccccc3n2C1)S(=O)(=O)c1ccc(F)cc1 [MK-7246]
In vivo [3]
  bioavailability: 138%
In vivo [4]
  Vd: 1.1 L/kg
